According to paper PMC9124820, “In vitro evaluation of fenfluramine and norfenfluramine as victims of drug interactions” (Pharmacology Research & Perspectives, 2022):

Key:
other rCYP450s = experiment: Reaction phenotyping, other rCYP450s of the panel (not given); assay type: in vitro ADME, human
Method: For FFA and nFFA reaction phenotyping experiments, LC‐MS/MS experiments were performed using an API 4000 QTRAP or QTRAP 5500 mass spectrometer (SCIEX) with positive electrospray ionization. Chromatography was performed using an Atlantis dC18 analytical column (100 × 2.1 mm, 5 µm; Waters Corporation). Mobile phases were 0.2% v/v formic acid in water and 0.2% v/v formic acid in methanol. FFA and nFFA were eluted at a flow rate of 0.5 mL/min with a linear gradient of 40%−95% methanol from 0.20−2.1 min. The mass transitions monitored were 232.0>109.0 for FFA, 204.0>159.0 for nFFA, 348.0>330.0 for 1’‐hydroxymidazolam‐d4 internal standard (FFA reaction phenotyping), and 262.0>244.0 for hydroxybupropion‐d6 internal standard (nFFA reaction phenotyping). Analyst Instrument Control and Data Processing software (v. 1.6.1) was used for collecting and integrating data (SCIEX). Calibration curves ranging from 1.25 µM−0.01 µM were used to quantify nFFA. Relative quantitation was used to approximate the amount of FFA test material used.
Methods used to evaluate the role of CYP450s in the metabolism of FFA have been described.[22], [23], [24] To determine whether FFA and nFFA were substrates for specific CYP450s, either FFA (1 and 10 μM) or nFFA (0.1 and 1 μM) was incubated via a Tecan Liquid Handling System (Tecan Life Sciences, Männedorf, Switzerland) in duplicate with 25 pmol of rCYP1A2, rCYP2B6, rCYP2C8, rCYP2C9, rCYP2C19, rCYP2D6, or rCYP3A4, and incubation at 37°C. The 200‐μL incubation mixtures contained potassium phosphate buffer (50 mM, pH 7.4), MgCl2 (3 mM), and EDTA (1 mM, pH 7.4), and an NADPH‐generating system. Incubations of FFA with control bactosomes and membranes containing human NADPH‐CYP450 oxidoreductase, but not human CYP450 (reductase control), served as negative controls. FFA or nFFA was added to the incubation mixtures in water (1% v/v). […] Supernatant fractions were analyzed by LC‐MS/MS.

[1] = Metabolic stability and metabolite identity, rat liver S9 fractions; assay type: in vitro ADME; conditions: pH 7.4; 1 µM FFA, rat liver S9 fractions 2 mg protein/mL
Method: LC‐MS/MS analyses to assess metabolic stability and identify the transporter substrate were performed using an API 4000 QTRAP mass spectrometer (SCIEX, Framingham, MA) with electrospray ionization in positive mode. Chromatography was performed using an Atlantis dC18 analytical column (100 × 2.1 mm, 5 µm; Waters Corporation, Milford, MA). Mobile phases were 0.2% v/v formic acid in water and 0.2% v/v formic acid in acetonitrile. For metabolic stability experiments, FFA and metabolites were eluted at a flow rate of 0.6 mL/min, with a linear gradient of 20%−80% acetonitrile from 0.30−2.0 min. […] The mass transitions monitored were 232.0 > 159.0 for FFA and 348.0 > 330.0 for 1ʹ‐OH‐midazolam‐d4 internal standard. […]
(§1) FFA (1 or 10 µM) was incubated with liver and intestinal S9 fractions (2 mg protein/mL) at 37 ± 1°C in 0.2‐mL incubation mixtures containing potassium phosphate buffer (50 mM, pH 7.4), magnesium chloride (MgCl2) (3 mM), and EDTA (1 mM, pH 7.4), in the presence or absence of a three‐component cofactor mixture (NADPH‐generating system, uridine diphosphate glucuronic acid (UDPGA) [8 mM], and 3’‐phosphoadenosine 5’‐phosphosulfate [0.5 mM]). […] Supernatant fractions were analyzed by LC‐MS/MS.
To characterize substrate loss and metabolic stability, duplicate samples were analyzed by LC‐MS/MS to determine the change in substrate concentration over the incubation period. […]

[2] = Metabolic stability and metabolite identity, dog intestinal S9 fractions; assay type: in vitro ADME
Method: LC‐MS/MS analyses to assess metabolic stability and identify the transporter substrate were performed using an API 4000 QTRAP mass spectrometer (SCIEX, Framingham, MA) with electrospray ionization in positive mode. Chromatography was performed using an Atlantis dC18 analytical column (100 × 2.1 mm, 5 µm; Waters Corporation, Milford, MA). Mobile phases were 0.2% v/v formic acid in water and 0.2% v/v formic acid in acetonitrile. For metabolic stability experiments, FFA and metabolites were eluted at a flow rate of 0.6 mL/min, with a linear gradient of 20%−80% acetonitrile from 0.30−2.0 min. For transporter substrate experiments, the gradient was slightly modified to achieve suitable chromatography. The mass transitions monitored were 232.0 > 159.0 for FFA and 348.0 > 330.0 for 1ʹ‐OH‐midazolam‐d4 internal standard. […]
as §1
To characterize substrate loss and metabolic stability, duplicate samples were analyzed by LC‐MS/MS to determine the change in substrate concentration over the incubation period. The rate constant of elimination (kel, min^−1) was determined from the time course of substrate loss based on single exponential decay (A(t)=A0(‐kelt)) . Half‐life in vitro was determined by the following equation: t1/2 = 0.693/kel. The in vitro intrinsic clearance (CLint) was calculated from the rate constant of elimination as follows: CLintμL/min/mgprotein=kelmin^‐1×incubationvolume(μL)/mgproteinperincubation.
Percent loss of substrate was determined by normalizing the mean analyte peak‐area ratio at each time point to the average of four replicates at the 0‐min time point (100%).

[3] = intestinal S9 fractions, pH 7.4, 1 µM FFA, dog intestine S9 fractions, outside assay detection limits

Row | SMILES | FFA loss (other rCYP450s; 1 μM FFA, rCYP450s other than rCYP2D6, rCYP2C19, rCYP1A2) | substrate loss (other rCYP450s; 10 μM FFA, rCYP450s other than rCYP2D6, rCYP2C19, rCYP1A2, rCYP2B6) | half-life at 1 µM [1] | microsomal CLint at 1 µM [1] | percentage of FFA substrate loss at 10 µM relative to 1 µM ([2]; dog intestinal S9 fractions, higher at 10 µM than at 1 µM) | half-life at 1 µM [2, 3] | microsomal CLint at 1 µM [2, 3] | contribution to nFFA metabolism (other rCYP450s; nFFA 0.1 μM and 1 μM, enzymes other than rCYP1A2, rCYP2B6, rCYP2C19, rCYP2D6)
1 | CCNC(C)Cc1cccc(C(F)(F)F)c1 (racemic) [FFA, (RS)‐ethyl (α‐methyl‐3‐trifluoromethylphenethyl)amine] | < 10% | < 15% | 35.4 min | 9.8 µL/min/mg | about 2 fold | > 120 min | < 2.9 µL/min/mg | –
2 | CC(N)Cc1cccc(C(F)(F)F)c1.Cl (centres unmarked) [nFFA, 1‐(3‐(trifluoromethyl)phenyl)propan‐2‐amine hydrochloride] | – | – | – | – | – | – | – | smaller contributions
